Reference: ChEMBL document CHEMBL3638998, “17Beta-hydroxysteroid dehydrogenase type 1 inhibitors for the treatment of hormone-related diseases” (2013)

Molecular target: CYP2C9 (Homo sapiens, UniProt P11712)
Test: Inhibition Assay: Inhibition assay using P450 CYP enzymes.

Chain of CYP2C9 (P11712 whole entry): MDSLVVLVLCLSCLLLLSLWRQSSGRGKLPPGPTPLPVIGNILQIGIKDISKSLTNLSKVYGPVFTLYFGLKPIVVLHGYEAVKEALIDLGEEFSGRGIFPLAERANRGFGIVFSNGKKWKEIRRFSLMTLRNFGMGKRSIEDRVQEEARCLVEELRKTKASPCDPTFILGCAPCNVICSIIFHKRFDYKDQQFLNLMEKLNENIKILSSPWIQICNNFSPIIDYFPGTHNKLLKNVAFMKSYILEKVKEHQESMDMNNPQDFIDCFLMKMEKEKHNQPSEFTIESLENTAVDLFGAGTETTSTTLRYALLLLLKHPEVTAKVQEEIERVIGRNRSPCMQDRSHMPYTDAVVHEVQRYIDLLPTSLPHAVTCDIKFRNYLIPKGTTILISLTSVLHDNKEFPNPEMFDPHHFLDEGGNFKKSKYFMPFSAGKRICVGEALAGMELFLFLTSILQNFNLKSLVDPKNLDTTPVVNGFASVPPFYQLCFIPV

CNC(=O)/C=C/c1cc(OC)cc(-c2ccc3cc(OC)ccc3c2)c1
IC50: 30 nM
